Results taken from ChEMBL document CHEMBL4680365, “Novel Oxopyrido[1,2-a]pyrimidine Compounds for Treating Bacterial Infection” (ACS Med Chem Lett, 2021).
pIC50: −log10 of the molar value.

Legend:
Escherichia coli = assay: Antibacterial activity against Escherichia coli BW25113 assessed as reduction in bacterial growth measured every 20 mins for 16 hrs by serial broth dilution method; type: functional, organism-based
Klebsiella pneumoniae = assay: Antibacterial activity against Klebsiella pneumoniae ATCC 10031 assessed as reduction in bacterial growth measured every 20 mins for 16 hrs by serial broth dilution method; type: functional, organism-based

CNc1cc(F)c(F)c2c1[nH]c1ncc(-c3cc(CN4CCOCC4)c4ncc(C(=O)O)c(=O)n4c3)c(N(C)C)c12
pIC50 (Escherichia coli): 6.28
pIC50 (Klebsiella pneumoniae): > 7.01

CNc1c(F)cc(F)c2c1[nH]c1ncc(-c3ccc4ncc(C(=O)O)c(=O)n4c3)c(N(C)C)c12
pIC50 (Escherichia coli): 6.30
pIC50 (Klebsiella pneumoniae): > 7.01

CNc1c(F)c(F)cc2c1[nH]c1ncc(-c3ccc4ncc(C(=O)O)c(=O)n4c3)c(N(C)C)c12
pIC50 (Escherichia coli): 6.35
pIC50 (Klebsiella pneumoniae): > 7.01

CNc1cc(F)c(Cl)c2c1[nH]c1ncc(-c3ccc4ncc(C(=O)O)c(=O)n4c3)c(N(C)C)c12
pIC50 (Escherichia coli): 6.34
pIC50 (Klebsiella pneumoniae): > 7.01

CNc1cc(F)c(F)c2c1[nH]c1ncc(-c3cc(CN(C)C)c4ncc(C(=O)O)c(=O)n4c3)c(N3CCCC3)c12
pIC50 (Escherichia coli): 6.18
pIC50 (Klebsiella pneumoniae): > 7.01

CNc1cc(F)c(F)c2c1[nH]c1ncc(-c3cc(C)c4ncc(C(=O)O)c(=O)n4c3)c(N(C)C)c12
pIC50 (Escherichia coli): 6.58
pIC50 (Klebsiella pneumoniae): > 7.01
